Experiments:
[1] = Anti-acetylcholine Writhing Test; assay type: in vivo; conditions: mice; for ED50: Mus musculus, read-out: ED50 (95% Confidence Limits); for ED50 / ED50 (95% Confidence Limits): expressed as free base
Source text: This response has been called writhing.

[2] = Anti-phenylquinone Writhing Test; assay type: in vivo; conditions: Mus musculus, mice, expressed as free base, read-out: ED50 (95% Confidence Limits)
[3] = Anti-bradykinin Test; assay type: in vivo; conditions: rats, expressed as free base; for ED50: Rattus norvegicus, read-out: ED50 (95% Confidence Limits)
[4] = EDTA Antinociceptive Test; assay type: in vivo; conditions: Cavia porcellus, sc, 0.5 h; subcutaneous, guinea pig, 30 minutes; read-out: subcutaneously effective dose (reduces the response score to 6 or less)
Method: This is also a confirmatory evaluation of analgesic activity. The test animal is the guinea pig. A threshold intradermal dose of ethylenediaminetetraacetic acid (EDTA) which can reproducibly elicit a cumulative response score of 12-18 discrete episodes of jumping, rearing, running, vocalization and biting or scratching at the site of injection within 40 seconds after challenge is determined for each animal. Thirty minutes after the administration of saline or test compound to 6-7 animals per dose, each animal is again challenged with its own threshold dose of EDTA. An effective drug dose is considered to be one which reduces the response score to 6 or less.

[5] = Tail-flick Agonist Test; assay type: in vivo; conditions: doses up to 120 mg./kg. subcutaneously, rats
[6] = Tail-flick Antagonist Test against morphine; conditions: Rattus norvegicus, read-out: AD50 (95% Confidence Limits)
[7] = Tail-flick Antagonist Test against meperidine; conditions: Rattus norvegicus, read-out: AD50 (95% Confidence Limits)
[8] = Tail-flick Antagonist Test against phenazocine; conditions: for ED50: Rattus norvegicus, read-out: AD50 (95% Confidence Limits); for antagonist response at 1 mg./kg.: 1 mg./kg. subcutaneous; for antagonist response at 10 mg./kg.: 10 mg./kg. subcutaneous
[9] = Comparison in three of the foregoing tests with the compound lacking 9-amino; conditions: relative to Gubitz compound

Nc1ccc2c(c1)N1CCN(CC3CC3)C(C2)C1 (racemic) [Example 1D, 4-cyclopropylmethyl-9-amino-3,4,5,6-tetrahydro-2H-1,5-methano-1,4-benzodiazocine]
ED50 ([1]; po): 5.9 mg/kg
ED50 ([1]; sc, subcutaneous): 3.2 mg/kg
ED50 (95% Confidence Limits) ([1]; oral): 5.9 (3.9-8.7) Mg./Kg.
ED50 (95% Confidence Limits) ([1]; subcutaneous): 3.2 (2.0-4.8) Mg./Kg.
ED50 ([2]; sc, subcutaneous): 1.8 mg/kg
ED50 ([2]; oral): 5.7 mg/kg
ED50 ([3]; sc, subcutaneous): 2.6 mg/kg
ED50 ([3]; oral): 5.4 mg/kg
ED50 (95% Confidence Limits) ([3]; subcutaneous): 2.6 (1.5-4.1) Mg./Kg.
minimal effective dose [4]: 1.25 mg/kg
tail-flick agonist activity [5]: at most inactive or questionably active
ED50 ([6]; sc): 8.6 mg/kg
ED50 ([7]; sc): 3.3 mg/kg
ED50 ([8]; sc): 1.6 mg/kg
AD50 (95% Confidence Limits) ([8]; subcutaneous, against phenazocine, expressed as free base): 1.6 (1.0-2.6) mg./kg.
times more potent than the compound of Formula A (lacking 9-amino) [9]: four to ten

c1ccc2c(c1)CC1CN2CCN1CC1CC1 (stereo not shown) [Compound of Formula A*, 4-cyclopropylmethyl-3,4,5,6-tetrahydro-2H-1,5-methano-1,4-benzodiazocine, reference compound]
ED50 ([1]; po): 32 mg/kg
ED50 ([1]; sc, subcutaneous): 12 mg/kg
ED50 ([3]; sc, subcutaneous): 21 mg/kg
ED50 ([8]; sc): 34 mg/kg

CCS(=O)(=O)O.CCS(=O)(=O)O.Nc1ccc2c(c1)N1CCN(CC3CC3)C(C2)C1 (stereo not shown) [Example 1E, 4-cyclopropylmethyl-9-amino-3,4,5,6-tetrahydro-2H-1,5-methano-1,4-benzodiazocine diethanesulfonate]
ED50 ([1]; sc, subcutaneous): 3.7 mg/kg
ED50 ([3]; oral): 4.2 mg/kg
tail-flick agonist activity [5]: at most inactive or questionably active
ED50 ([6]; po): 13 mg/kg
ED50 ([7]; po): 4.8 mg/kg
ED50 ([8]; po): 3.5 mg/kg

Nc1ccc2c(c1)N1CCN(CC3CC3)C(C2)C1 (stereo not shown) [Example 1J, levo-4-cyclopropylmethyl-9-3,4,5,6-tetrahydro-2H-1,5-methano-1,4-benzodiazocine]
response at 75 mg./kg. (highest dose tested) ([1]; 75 mg./kg. subcutaneous): 67%
ED50 (95% Confidence Limits) ([1]; subcutaneous): 40 Mg./Kg.
antagonist response at 1 mg./kg. ([8]; against phenazocine): 10%
antagonist response at 10 mg./kg. ([8]; against phenazocine): 6%
antagonist response at 80 mg./kg. ([8]; 80 mg./kg. subcutaneous, against phenazocine): 25%

Nc1ccc2c(c1)N1CCN(CC3CC3)C(C2)C1 (stereo not shown) [Example 1K, dextro-4-cyclpropylmethyl-9-amino-3,4,5,6-tetrahydro-2H-1,5-methano-1,4-benzodiazocine]
ED50 (95% Confidence Limits) ([1]; subcutaneous): 1.0 (0.62-2.0) Mg./Kg.
ED50 ([8]; sc): 0.31 mg/kg

C=CCN1CCN2CC1Cc1ccc(N)cc12 (stereo not shown) [Example 2E, 4-allyl-9-amino-3,4,5,6-tetrahydro-2H-1,5-methano-1,4-benzodiazocine diethanesulfonate hemihydrate]
ED50 ([1]; sc, subcutaneous): 30 mg/kg
ED50 ([8]; sc): 1.6 mg/kg

CCNc1ccc2c(c1)N1CCN(CC3CC3)C(C2)C1.Cl.Cl (stereo not shown) [Example 3B, 4-cyclopropylmethyl-9-ethylamino-3,4,5,6-tetrahydro-2H-1,5-methano-1,4-benzodiazocine dihydrochloride]
ED50 ([1]; sc, subcutaneous): 3.8 mg/kg
ED50 ([3]; sc, subcutaneous): 3.4 mg/kg
tail-flick agonist activity [5]: at most inactive or questionably active
ED50 ([8]; sc): 4.4 mg/kg

CCCCNc1ccc2c(c1)N1CCN(CC3CC3)C(C2)C1 (stereo not shown) [Example 4B, 4-cyclopropylmethyl-9-butylamino-3,4,5,6-tetrahydro-2H-1,5-methano-1,4-benzodiazocine]
ED50 ([1]; sc, subcutaneous): 1.6 mg/kg
ED50 ([3]; sc, subcutaneous): 2.9 mg/kg
tail-flick agonist activity [5]: at most inactive or questionably active
antagonist response at 1 mg./kg. ([8]; against phenazocine): 6%
antagonist response at 10 mg./kg. ([8]; against phenazocine): 0%
antagonist response at 20 mg./kg. ([8]; 20 mg./kg. subcutaneous, against phenazocine): 34%
toxic effects at 20 mg./kg. ([8]; 20 mg./kg. subcutaneous, rats): toxic effects

Source: patent US4299830A, “1,5-Methano-1,4-benzodiazocines, intermediates therefor, and method of use and compositions thereof” (Sterling Drug Inc., priority 1980, dated 1981)
